Reference: US20260364184A1, “COMPOUND BASED ON OXOISOINDOLINYL-SUBSTITUTED TETRAHYDROPYRIMIDINE-DIONE AND USE THEREOF” (GLUETACS THERAPEUTICS (SHANGHAI) CO., LTD., priority 2023, published 2026)
Like-named read-outs stand apart in the source and are kept apart here.

How the values were obtained:
Type in all cases: cell-based
[1] = tested on: Human diffuse large B-cell lymphoma cell line (TMD8); assay: Inhibition of TMD8 cell proliferation (CellTiter luminescent viability); details: Homo sapiens, TMD8, 96 h; for inhibition at 0.01 µM: TMD8, 10 nM, read-out: Inhibition Rate at 10 nM (%); for inhibition at 0.5 µM: TMD8, 500 nM, read-out: Inhibition Rate at 500 nM (%)
Description: (§1) The tumor cells used herein were cultured in a cell culture medium listed in table 3 at 37 °C in an incubator with 5% CO2. Prior to experimentation, all cell lines used were correctly identified by STR profiling, and tested negative for mycoplasma contamination using a mycoplasma detection kit through routine screenings.
(§2) The IC50 values of the compounds of the present disclosure (including the compounds in Table 1, Table 2, and Examples 1-468) were determined using the CellTiter-Meiluncell Luminescent Cell Viability Assay Kit from Dalian Meilun Biotech Co., Ltd. The detailed procedure is as follows: Tumor cells were seeded in 96-well cell culture plates at the densities specified in Table 4. On the following day, the test compounds of the present disclosure were subjected to serial dilution. The dilution can be performed according to one of the following two methods: • (1) The first dilution method: The test compounds of the present disclosure (including the compounds in Table 1, Table 2, and Examples 1-468) were subjected to 5-fold serial dilutions starting from a highest concentration of 2000 μM, resulting in a total of 9 concentrations from high to low (2000, 400, 80, 16, 3.2, 0.64, 0.128, 0.0256, 0.00512 μM). Subsequently, 0.5 μL of the test compound dilution was transferred into the 96-well plate containing the cells, with each well containing 100 μL of cell culture medium. […] Into the 96-well plate, the diluted test compounds and corresponding detection reagents were added, resulting in final test compound concentrations of 500 nM and 10 nM, respectively. The experimental procedure is described below using the diluted 2 μM test compound as an example.
(§3) 0.5 μL of the aforementioned diluted compound of the present disclosure (including the compounds in Table 1, Table 2, and Examples 1-468) was added to the seeded cells in 100 μL of medium, yielding a final test compound concentration of 10 nM. After the cells were treated with the compounds of the present disclosure for a specified period, the cell viability assay reagent was added to the culture medium according to the kit's instructions to determine cell viability. […] All controls were treated using the same procedure as the compounds of the present disclosure. The growth inhibition curves for the compounds of the present disclosure were plotted using Prism GraphPad software, and the IC50 values were calculated therefrom.

[2] = tested on: Human acute lymphocytic leukemia T lymphocytes cell line (CCRF-CEM); assay: Inhibition of CCRF-CEM cell proliferation (CellTiter luminescent viability); details: Homo sapiens, 96 h, Table IF2, AR inhibitor-based; for inhibition at 0.01 µM: 10 nM, read-out: Inhibition Rate at 10 nM (%); for inhibition at 0.5 µM: 500 nM, read-out: Inhibition Rate at 500 nM (%)
Description: as §1, §2, §3

[3] = tested on: Human Multiple myeloma cell line (MM.1S); assay: Inhibition of MM.1S cell proliferation (CellTiter luminescent viability); details: Homo sapiens, MM1.S, Table IJ1, Tau inhibitor-based, 96 hours; for inhibition at 0.01 µM: 10 nM, read-out: Inhibition Rate at 10 nM (%); for inhibition at 0.5 µM: 500 nM, read-out: Inhibition Rate at 500 nM (%)
Method in brief: (§4)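 IC50 is fitted from luminescent viability (CellTiter-Meiluncell) curves. Nine-point, 5-fold dilution series (top stock 2000 μM) are added at 0.5 μL per 100 μL medium to cells plated the day before, with growth at 37 °C and 5% CO2.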

[4] = tested on: Human myeloid monocytic leukemia cell line (MV-4-11); assay: Inhibition of MV-4-11 cell proliferation (CellTiter luminescent viability); details: Homo sapiens, MV4-11, Table IJ2, Tau inhibitor-based, 96 hours; for inhibition at 0.01 µM: MV-4-11, 10 nM, read-out: Inhibition Rate at 10 nM (%); for inhibition at 0.5 µM: MV-4-11, 500 nM, read-out: Inhibition Rate at 500 nM (%)
Method in brief: as §4

Row | Compound | inhibition at 0.01 µM ([1]; Table IF1, AR inhibitor-based) [%] | inhibition at 0.5 µM ([1]; Table IF1, AR inhibitor-based) [%] | inhibition at 0.01 µM ([1]; Table IJ3, Tau inhibitor-based) [%] | inhibition at 0.5 µM ([1]; Table IJ3, Tau inhibitor-based) [%] | inhibition at 0.01 µM [4] [%] | inhibition at 0.5 µM [4] [%] | further results
1 | N#Cc1ccc(O[C@H]2CC[C@H](NC(=O)c3ccc(N4CCC(CN5CCN(c6ccc7c(c6F)C(=O)N(N6CCC(=O)NC6=O)C7=O)CC5)CC4)nn3)CC2)cc1Cl [GT-05232, N-((1r,4r)-4-(3-chloro-4-cyanophenoxy)cyclohexyl)-6-(4-((4-(2-(2,4-dioxotetrahydropyrimidin-1(2H)-yl)-4-fluoro-1,3-dioxoisoindolin-5-yl)piperazin-1-yl)methyl)piperidin-1-yl)pyridazine-3-carboxamide] | 10 to 15 | 25 to 30 | – | – | – | – | –
2 | CC1(C)[C@H](NC(=O)c2ccc(N3CCC(CN4CCN(c5cc6c(cc5F)C(=O)N(N5CCC(=O)NC5=O)C6=O)CC4)CC3)nc2)C(C)(C)[C@H]1Oc1ccc(C#N)c(Cl)c1 [GT-05304, N-((1r,3r)-3-(3-chloro-4-cyanophenoxy)-2,2,4,4-tetramethylcyclobutyl)-6-(4-((4-(2-(2,4-dioxotetrahydropyrimidin-1(2H)-yl)-6-fluoro-1,3-dioxoisoindolin-5-yl)piperazin-1-yl)methyl)piperidin-1-yl)nicotinamide] | 30 to 35 | 40 to 60 | – | – | – | – | inhibition at 0.01 µM [2]: 20 to 30%; inhibition at 0.5 µM [2]: 30 to 40%
3 | CC1(C)[C@H](NC(=O)c2ccc(N3CCC(CN4CC5CC(C4)N5c4ccc5c(c4)C(=O)N(N4CCC(=O)NC4=O)C5=O)CC3)nc2)C(C)(C)[C@H]1Oc1ccc(C#N)c(Cl)c1 [GT-05306, N-((1r,3r)-3-(3-chloro-4-cyanophenoxy)-2,2,4,4-tetramethylcyclobutyl)-6-(4-((6-(2-(2,4-dioxotetrahydropyrimidin-1(2H)-yl)-1,3-dioxoisoindolin-5-yl)-3,6-diazabicyclo[3.1.1]heptan-3-yl)methyl)piperidin-1-yl)nicotinamide] | 10 to 15 | 20 to 25 | – | – | – | – | inhibition at 0.01 µM [2]: 15 to 20%; inhibition at 0.5 µM [2]: 20 to 30%
4 | CC1(C)[C@H](NC(=O)c2ccc(N3CCC(CN4CCN(C5CCN(c6ccc7c(c6)C(=O)N(N6CCC(=O)NC6=O)C7=O)CC5(F)F)CC4)CC3)nc2)C(C)(C)[C@H]1Oc1ccc(C#N)c(Cl)c1 (stereo partly shown) [GT-05347, N-((1r,3r)-3-(3-chloro-4-cyanophenoxy)-2,2,4,4-tetramethylcyclobutyl)-6-(4-((4-(1-(2-(2,4-dioxotetrahydropyrimidin-1(2H)-yl)-1,3-dioxoisoindolin-5-yl)-3,3-difluoropiperidin-4-yl)piperazin-1-yl)methyl)piperidin-1-yl)nicotinamide] | 5 to 10 | 20 to 25 | – | – | – | – | –
5 | O=C1CCN(N2C(=O)c3ccc(COc4ccc(Cl)cc4-c4nc5cc(C(F)(F)F)cc(Cl)c5[nH]4)cc3C2=O)C(=O)N1 [GT-06478, 5-((4-chloro-2-(7-chloro-5-(trifluoromethyl)-1H-benzo[d]imidazol-2-yl)phenoxy)methyl)-2-(2,4-dioxotetrahydropyrimidin-1(2H)-yl)isoindoline-1,3-dione] | 15 to 20 | 30 to 35 | – | – | – | – | –
6 | Cn1c2ccncc2c2ccc(-c3cnc(N4CCN(CC5CCN(c6ccc7c(c6)C(=O)N(N6CCC(=O)NC6=O)C7=O)CC5)CC4)c(C(F)(F)F)c3)cc21 [GT-08553, 2-(2,4-dioxotetrahydropyrimidin-1(2H)-yl)-5-(4-((4-(5-(5-methyl-5H-pyrido[4,3-b]indol-7-yl)-3-(trifluoromethyl)pyridin-2-yl)piperazin-1-yl)methyl)piperidin-1-yl)isoindoline-1,3-dione] | – | – | 10 to 15 | 40 to 50 | – | – | –
7 | O=C1CCN(N2C(=O)c3cccc(N4CCC(CN5CCN(c6ccc(-c7ccc8c(c7)[nH]c7ccncc78)cn6)CC5)CC4)c3C2=O)C(=O)N1 [GT-08557, 4-(4-((4-(5-(5H-pyrido[4,3-b]indol-7-yl)pyridin-2-yl)piperazin-1-yl)methyl)piperidin-1-yl)-2-(2,4-dioxotetrahydropyrimidin-1(2H)-yl)isoindoline-1,3-dione] | – | – | 0 to 5 | 60 to 70 | – | – | inhibition at 0.01 µM [3]: 30 to 40%; inhibition at 0.5 µM [3]: 50 to 60%
8 | Cn1c2ccncc2c2ccc(-c3ccc(N4CCN(CC5CCN(c6cccc7c6C(=O)N(N6CCC(=O)NC6=O)C7=O)CC5)CC4)nc3)cc21 [GT-08558, 2-(2,4-dioxotetrahydropyrimidin-1(2H)-yl)-4-(4-((4-(5-(5-methyl-5H-pyrido[4,3-b]indol-7-yl)pyridin-2-yl)piperazin-1-yl)methyl)piperidin-1-yl)isoindoline-1,3-dione] | – | – | 5 to 10 | 80 to 100 | -5 to 0 | 50 to 60 | –
9 | Cc1cc(-c2ccc3c4cnccc4n(C)c3c2)cnc1N1CCN(CC2CCN(c3cccc4c3C(=O)N(N3CCC(=O)NC3=O)C4=O)CC2)CC1 [GT-08563, 2-(2,4-dioxotetrahydropyrimidin-1(2H)-yl)-4-(4-((4-(3-methyl-5-(5-methyl-5H-pyrido[4,3-b]indol-7-yl)pyridin-2-yl)piperazin-1-yl)methyl)piperidin-1-yl)isoindoline-1,3-dione] | – | – | 15 to 20 | 80 to 100 | 15 to 20 | 80 to 100 | inhibition at 0.01 µM [3]: 15 to 20%; inhibition at 0.5 µM [3]: 60 to 70%
10 | Cn1c2ccncc2c2ccc(-c3cnc(N4CCN(CC5CCN(c6cccc7c6C(=O)N(N6CCC(=O)NC6=O)C7=O)CC5)CC4)c(Cl)c3)cc21 [GT-08564, 4-(4-((4-(3-chloro-5-(5-methyl-5H-pyrido[4,3-b]indol-7-yl)pyridin-2-yl)piperazin-1-yl)methyl)piperidin-1-yl)-2-(2,4-dioxotetrahydropyrimidin-1(2H)-yl)isoindoline-1,3-dione] | – | – | 10 to 15 | 80 to 100 | 0 to 5 | 70 to 80 | –
